Assay results reported in paper PMC5349880, “P-glycoprotein-mediated chemoresistance is reversed by carbonic anhydrase XII inhibitors” (Oncotarget, 2016).
Counter-ions that a name gives are not always drawn. Blank lines part the entries; values can stand above or below the compound they belong to.

Columns and labels:
A549 cells = assay: Cell viability (neutral red); assay type: cell-based, human; details: A549 cells; compound alone, 5 nM
SaOS/DX cells = assay: Cell viability (neutral red); assay type: cell-based, human; details: SaOS/DX cells; compound alone, 5 nM
[1] = test system: ca12 KO HT29/DX, A549/DX, MDA-MB-231 and U2OS/DX cells; assay: Intracellular doxorubicin accumulation in ca12 knocked-out cells; assay type: cell-based, human
Description: Data are presented as means ± SD (n = 4). […] The absorbance of viable cells was measured spectrophotometrically. Data are presented as means ± SD (n = 4).
Doxorubicin content was measured fluorimetrically as detailed previously by us. […] Cells were washed twice with PBS, detached with trypsin and sonicated. The intracellular drug content was measured by liquid scintillation. The results were expressed as nmol drug/mg cell proteins, according to titration curves previously set.
5 × 10^5 cells were transduced with 1 μg RNA vector (CRISPR pCas guide vector) ca12 or 1 μg not-targeting vector, mixed with 1 μg donor DNA vector (Origene, Rockville, MD), following the manufacturer's instructions. Stable KO cells were selected in complete medium containing 1 μg/ml puromycin for three weeks. Knockout efficacy was evaluated by immunoblotting, as reported above.

JC cells [2] = assay: Cell viability (neutral red); assay type: cell-based, murine; details: JC cells; compound alone, 5 nM
[3] = test system: CCD-Co-18 cells, BEAS-2B cells, MCF10A cells, fibroblasts; assay: Cell viability (neutral red) of not-transformed cells; assay type: cell-based, human; details: 5 nM, 72 h; no detectable CAXII
Excerpt: Supplementary Figure S4: Effects of compounds 1, 2 and 4 on not-transformed cells. (A) Not-transformed human epithelial colon CCD-Co-18 cells, epithelial lung BEAS-2B cells, epithelial breast MCF10A cells, fibroblasts (fibro) were lysed and immunoblotted for CAXII and CAIX. A549/DX cells were used as control of CAXII- and CAIX-positive cells. β-tubulin level was used as control of equal protein loading. The figure is representative of one out of three experiments with similar results. (B) Cells were grown for 72 h in fresh medium (–), or in medium containing 5 nM compounds 1, 2 and 4, then stained with neutral red dye. The absorbance of viable cells was measured spectrophotometrically. Data are presented as means ± SD (n = 4).

MDA-MB-231 cells = assay: Cell viability (neutral red); assay type: cell-based, human; details: MDA-MB-231 cells; compound alone, 5 nM
T74D cells = assay: Cell viability (neutral red); assay type: cell-based, human; details: T74D cells; compound alone, 5 nM
U2OS/DX cells = assay: Cell viability (neutral red); assay type: cell-based, human; details: U2OS/DX cells; compound alone, 5 nM
HT29/DX cells = assay: Cell viability (neutral red); assay type: cell-based, human; details: HT29/DX cells; compound alone, 5 nM
TUBO cells = assay: Cell viability (neutral red); assay type: cell-based, murine; details: TUBO cells; compound alone, 5 nM
Pgp = Pgp ATPase activity on Pgp-rich vesicles; assay type: cell-based; details: for reduction of Pgp ATPase activity: cells grown 24 h with 5 nM compound
Description: Pancadherin level was used as control of equal protein loading. no Ab: A549/DX sample immunoprecipitated without antibody. […] Data are presented as means ± SD (n = 3).
The assay was performed on Pgp-enriched membrane vesicles as detailed in [39]. Verapamil (10 μM) was added to the reaction mix to achieve a maximal activation of the Pgp ATPase activity. Results were expressed as nmol hydrolyzed phosphate (Pi)/min/mg proteins, according to the titration curve previously prepared.

A549/DX cells = assay: Cell viability (neutral red); assay type: cell-based, human; details: A549/DX cells; compound alone, 5 nM
human CA IX = molecular target: human CA IX; design: method as in PMID 21851094, PMID 19827837, PMID 21314129; details: recombinant CA, errors ± 5%, three determinations; cited from earlier work
human CA XII [4] = assay: CA inhibition, stopped-flow CO2 hydration; assay type: biochemical; details: ratio of Kis
Description: Saturated CO2 solutions in water at 20°C were used as substrate, while the recombinant CA protein was prepared in Hepes buffer (10 mM, pH 7.5) with added NaClO4 (0.1 M) to maintain a constant the ionic strength. […] The inhibition constants were obtained by nonlinear least-squares methods using PRISM 3. The curve fitting algorithm allowed us to obtain the IC50 values, from which Ki values were calculated by using the Cheng-Prusoff equation.

human CA II = molecular target: human CA II; design: method as in PMID 21851094, PMID 19827837, PMID 21314129; details: recombinant CA, errors ± 5%, three determinations; cited from earlier work
human CA XII [5] = molecular target: human CA XII; design: method as in PMID 21851094, PMID 19827837, PMID 21314129; details: recombinant CA, errors ± 5%, three determinations; cited from earlier work
human CA I = molecular target: human CA I; design: method as in PMID 21851094, PMID 19827837, PMID 21314129; details: recombinant CA, errors ± 5%, three determinations; cited from earlier work
[6] = Liver microsome metabolic stability (mouse); assay type: in vitro ADME; details: mouse liver microsomes; read-out: mouse liver microsome stability t1/2
Description: (§1) Plasma stability (mouse) and liver microsome metabolic stability (mouse) were measured by the Biopharmacy Laboratory, Shanghai Institute of Materia Medica, Chinese Academy of Sciences.

JC cells [7] = assay: In vivo tumor growth, JC breast tumor model; details: for reduction in tumor volume at day 18: co-administered with 5 mg/kg doxorubicin i.v.
Description: Data are presented as means ± SD.
Tumor growth was measured daily by caliper and calculated according to the equation (L × W^2)/2, where L = tumor length, W = tumor width.

[8] = Hematochemical parameters of tumor-bearing animals
Plasma stability (mouse) = assay type: in vitro ADME; details: read-out: mouse plasma stability t1/2 (converted)
Description: as §1

[9] = test system: drug-sensitive and drug-resistant cancer cells; assay: Cell viability (neutral red), whole panel of cancer cell lines; details: read-out: IC50 of tariquidar alone
[10] = C1 19 ng/kg intratumorally alone
[11] = C1 1900 ng/kg intratumorally alone
[12] = dox 5 mg/kg i.v. + C1 19 ng/kg intratumorally
[13] = dox 5 mg/kg i.v. + C1 1900 ng/kg intratumorally

Structure (SMILES): NS(=O)(=O)OC[C@H]1OC(O)[C@H](O)[C@@H](O)[C@H]1O (stereo partly drawn) [Compound 4]
reduction in viability for individual compounds (A549 cells): ≤ 28 ± 10% | reduction in viability for individual compounds (SaOS/DX cells): ≤ 32 ± 7% | effect on doxorubicin intracellular accumulation [1]: lost the ability to further increase the doxorubicin intracellular accumulation | reduction in viability for individual compounds (JC cells [2]): ≤ 30 ± 10% | cytotoxic effect in not-transformed cells [3]: did not exert any cytotoxic effect | reduction in viability for individual compounds (MDA-MB-231 cells): ≤ 36 ± 11% | reduction in viability for individual compounds (T74D cells): ≤ 33 ± 12% | reduction in viability for individual compounds (U2OS/DX cells): ≤ 27 ± 8% | reduction in viability for individual compounds (HT29/DX cells): ≤ 31 ± 6% | reduction in viability for individual compounds (TUBO cells): ≤ 28 ± 7% | reduction of Pgp ATPase activity (Pgp): ≥ 1.47 fold | reduction in viability for individual compounds (A549/DX cells): ≤ 38 ± 7% | Ki (human CA IX): 62 nM

Structure (SMILES): NS(=O)(=O)c1ccc(CNS(=O)(=O)[C@@H]2O[C@H](CO)[C@@H](O[C@H]3O[C@H](CO)[C@@H](O)[C@H](O)[C@H]3O)[C@H](O)[C@H]2O)cc1 [Compound 8]
CAXII Isozyme Selectivity CA I/XII (human CA XII [4]): 12.3 | CAXII Isozyme Selectivity CA IX/XII (human CA XII [4]): 12.0 | CAXII Isozyme Selectivity CAII/ XII (human CA XII [4]): 0.6 | Ki (human CA II): 4.8 nM | Ki (human CA XII [5]): 8.2 nM | Ki (human CA I): 101 nM | Ki (human CA IX): 98 nM

Structure (SMILES): NS(=O)(=O)c1ccc(CNS(=O)(=O)[C@@H]2O[C@H](CO)[C@@H](O[C@H]3O[C@H](CO)[C@H](O)[C@H](O)[C@H]3O)[C@H](O)[C@H]2O)cc1 [Compound 7]
CAXII Isozyme Selectivity CA I/XII (human CA XII [4]): 12.0 | CAXII Isozyme Selectivity CA IX/XII (human CA XII [4]): 11.9 | CAXII Isozyme Selectivity CAII/ XII (human CA XII [4]): 0.6 | Ki (human CA II): 5 nM | Ki (human CA XII [5]): 8.9 nM | Ki (human CA I): 107 nM | Ki (human CA IX): 106 nM

half-life [6]: 2.25 h | AP [8, 10]: 91 ± 13 U/l | CPK [8, 10]: 271 ± 84 U/l | Creatinine [8, 10]: 0.021 ± 0.011 mg/L | LDH [8, 10]: 6723 ± 1023 U/l | AP [8, 11]: 83 ± 11 U/l | CPK [8, 11]: 312 ± 81 U/l | Creatinine [8, 11]: 0.033 ± 0.008 mg/L | LDH [8, 11]: 6729 ± 835 U/l | AP [8, 12]: 79 ± 11 U/l | CPK [8, 12]: 701 ± 129 U/l | Creatinine [8, 12]: 0.029 ± 0.011 mg/L | LDH [8, 12]: 6091 ± 836 U/l | AP [8, 13]: 83 ± 19 U/l | CPK [8, 13]: 691 ± 103 U/l | Creatinine [8, 13]: 0.028 ± 0.008 mg/L | LDH [8, 13]: 6241 ± 936 U/l | half-life (Plasma stability (mouse)): 0.7 h
Structure (SMILES): NS(=O)(=O)OCCCNS(=O)(=O)[C@@H]1O[C@H](CO)[C@@H](O)[C@H](O)[C@H]1O [Compound 1]
reduction in viability for individual compounds (A549 cells): ≤ 28 ± 10% | reduction in viability for individual compounds (SaOS/DX cells): ≤ 32 ± 7% | effect on doxorubicin intracellular accumulation [1]: lost the ability to further increase the doxorubicin intracellular accumulation | reduction in tumor volume at day 18 (JC cells [7]; 19 ng/kg intratumorally): 21% | reduction in tumor volume at day 18 (JC cells [7]; 1900 ng/kg intratumorally): 47% | effect on tumor growth when used alone (JC cells [7]; 19 and 1900 ng/kg intratumorally, alone): no effect on tumor growth | reduction in viability for individual compounds (JC cells [2]): ≤ 30 ± 10% | ALT [8, 10]: 38 ± 12 U/l | AST [8, 10]: 239 ± 72 U/l | ALT [8, 11]: 45 ± 7 U/l | AST [8, 11]: 261 ± 71 U/l | ALT [8, 12]: 44 ±11 U/l | AST [8, 12]: 221 ± 71 U/l | ALT [8, 13]: 33 ± 15 U/l | AST [8, 13]: 182 ± 44 U/l | cytotoxic effect in not-transformed cells [3]: did not exert any cytotoxic effect | reduction in viability for individual compounds (MDA-MB-231 cells): ≤ 36 ± 11% | reduction in viability for individual compounds (T74D cells): ≤ 33 ± 12% | reduction in viability for individual compounds (U2OS/DX cells): ≤ 27 ± 8% | reduction in viability for individual compounds (HT29/DX cells): ≤ 31 ± 6% | reduction in viability for individual compounds (TUBO cells): ≤ 28 ± 7% | reduction of Pgp ATPase activity (Pgp): ≥ 1.47 fold | reduction in viability for individual compounds (A549/DX cells): ≤ 38 ± 7%

Structure (SMILES): NS(=O)(=O)OC[C@H]1OC(O)[C@H](O)[C@@H](O)[C@@H]1O (stereo partly drawn) [Compound 2]
reduction in viability for individual compounds (A549 cells): ≤ 28 ± 10% | reduction in viability for individual compounds (SaOS/DX cells): ≤ 32 ± 7% | effect on doxorubicin intracellular accumulation [1]: lost the ability to further increase the doxorubicin intracellular accumulation | reduction in viability for individual compounds (JC cells [2]): ≤ 30 ± 10% | cytotoxic effect in not-transformed cells [3]: did not exert any cytotoxic effect | reduction in viability for individual compounds (MDA-MB-231 cells): ≤ 36 ± 11% | reduction in viability for individual compounds (T74D cells): ≤ 33 ± 12% | reduction in viability for individual compounds (U2OS/DX cells): ≤ 27 ± 8% | reduction in viability for individual compounds (HT29/DX cells): ≤ 31 ± 6% | reduction in viability for individual compounds (TUBO cells): ≤ 28 ± 7% | reduction of Pgp ATPase activity (Pgp): ≥ 1.47 fold | reduction in viability for individual compounds (A549/DX cells): ≤ 38 ± 7% | Ki (human CA IX): 8.6 nM

Structure (SMILES): CCC(=O)OC1O[C@H](COS(N)(=O)=O)[C@@H](OC(=O)CC)[C@H](OC(=O)CC)[C@H]1OC(=O)CC (stereo partly drawn) [Compound 3]
Ki (human CA IX): 77 nM

Structure (SMILES): NS(=O)(=O)c1ccc(CNS(=O)(=O)[C@@H]2O[C@H](CO)[C@@H](O)[C@H](O)[C@H]2O)cc1 [Compound 5]
Ki (human CA II): 9.1 nM | Ki (human CA XII [5]): 8.3 nM | Ki (human CA I): 102 nM

effect on Pgp ATPase activity (Pgp; tariquidar 25 nM added during the assay): strongly decreased ATPase activity | IC50 [9]: > 10000 nM
Structure (SMILES): COc1cc2c(cc1OC)CN(CCc1ccc(NC(=O)c3cc(OC)c(OC)cc3NC(=O)c3cnc4ccccc4c3)cc1)CC2 [tariquidar, Tariquidar dihydrochloride, reference compound]

Structure (SMILES): NS(=O)(=O)c1ccc(CNS(=O)(=O)[C@@H]2O[C@H](CO)[C@H](O)[C@H](O)[C@H]2O)cc1 [Compound 6]
Ki (human CA II): 7.8 nM | Ki (human CA XII [5]): 8.7 nM | Ki (human CA I): 87 nM
